Values quoted from earlier work as cited in PMC3653137 (Molecular pharmaceutics, 2013).
Residues, ends and D or L forms follow the SMILES beside them.

Assays:
CCRF-CEM cells = conditions: [WR]4 alone at similar concentrations
SK-OV-3 cells = conditions: [WR]4 alone at similar concentrations
HCT-116 cells = conditions: [WR]4 alone at similar concentrations
BT-20 cells = conditions: BT-20 human breast carcinoma cells

## N=C(N)NCCC[C@@H]1NC(=O)[C@H](Cc2c[nH]c3ccccc23)NC(=O)[C@H](CCCNC(=N)N)NC(=O)[C@H](Cc2c[nH]c3ccccc23)NC(=O)[C@H](CCCNC(=N)N)NC(=O)[C@H](Cc2c[nH]c3ccccc23)NC(=O)[C@H](CCCNC(=N)N)NC(=O)[C@H](Cc2c[nH]c3ccccc23)NC1=O [[WR]4] (cyclo(RWRWRWRW))
CCRF-CEM cells
  cytotoxicity in CCRF-CEM cells: not cytotoxic
SK-OV-3 cells
  cytotoxicity in SK-OV-3 cells: not cytotoxic
HCT-116 cells
  cytotoxicity in HCT-116 cells: not cytotoxic

## Lys-(CH2)11-Arg-(CH2)11-Arg [LPA4]
BT-20 cells
  fold enhancement of cellular delivery of F′-GpYEEI by the carrier peptide: 10 fold
